We go through four compounds from ChEMBL document CHEMBL4627408, “Metabolic Activation of Pirfenidone Mediated by Cytochrome P450s and Sulfotransferases” (J Med Chem, 2020).

The structures appear in SMILES notation.

Data set [1] in a line: Retention time in rat liver microsomes treated with 50 uM pirfenidone incubated for 45 mins in presence of NADPH by LC-MS/MS analysis. In kind it is ADME, Microsome. Conditions: 0.75 h.
The nature of data set [2]: Retention time in rat liver microsomes treated with 50 uM pirfenidone incubated for 45 mins in presence of NADPH and NAC by LC-MS/MS analysis. It counts as ADME, Microsome. The conditions noted are these: 0.75 h.
Data set [3] has as its target T1, Cytochrome P450 3A5 (Homo sapiens, UniProt P20815). Put plainly: Drug level assessed as human recombinant CYP3A5-mediated compound formation using 50 uM pirfenidone incubated for 45 mins in presence of NADPH and glutathione by LC-MS/MS analysis. It counts as ADME. Conditions: recombinant enzyme, 0.75 h.
Data set [4] deals with T2, Cytochrome P450 3A4 (Homo sapiens, UniProt P08684). As to the kind of experiment: Drug level assessed as human recombinant CYP3A4-mediated compound formation using 50 uM pirfenidone incubated for 45 mins in presence of NADPH and glutathione by LC-MS/MS analysis. It counts as ADME. The conditions noted are these: recombinant enzyme, 0.75 h.
T2 sequence (P08684 whole entry): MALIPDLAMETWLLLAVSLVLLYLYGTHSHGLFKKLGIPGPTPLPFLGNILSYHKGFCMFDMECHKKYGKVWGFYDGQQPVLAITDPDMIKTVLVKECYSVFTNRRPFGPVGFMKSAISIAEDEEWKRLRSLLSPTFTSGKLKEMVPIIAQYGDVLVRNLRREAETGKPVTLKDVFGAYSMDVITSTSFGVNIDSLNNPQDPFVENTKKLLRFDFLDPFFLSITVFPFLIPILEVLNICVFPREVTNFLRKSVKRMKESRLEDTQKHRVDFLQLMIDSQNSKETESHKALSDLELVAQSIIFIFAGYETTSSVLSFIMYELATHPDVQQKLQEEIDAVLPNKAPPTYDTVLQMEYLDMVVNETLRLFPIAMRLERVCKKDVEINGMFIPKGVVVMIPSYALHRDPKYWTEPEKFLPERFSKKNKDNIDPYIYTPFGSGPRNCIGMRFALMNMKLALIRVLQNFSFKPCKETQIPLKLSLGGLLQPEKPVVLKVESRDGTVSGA
A short description of data set [5]: Drug metabolism in rat liver microsomes assessed as 5-Hydroxymethyl-1-phenyl-1H-pyridine-2-one formation at 50 uM incubated for 45 mins in presence of NADPH and glutathione by LC-MS/MS analysis. In kind it is ADME, Microsome. Conditions: 0.75 h.
The nature of data set [6]: Drug metabolism in rat liver microsomes assessed as Retention time of GSH metabolite at 50 uM incubated for 45 mins in presence of NADPH and glutathione by LC-MS/MS analysis. It counts as ADME, Microsome. Conditions: 0.75 h.
Data set [7] addresses T2, Cytochrome P450 3A4. As to the kind of experiment: Drug metabolism assessed as human recombinant CYP3A4-mediated 5-methylene-1-phenyl-pyridin-1-ium-2-one formation at 50 uM incubated for 45 mins in presence of NADPH and glutathione by LC-MS/MS analysis. Conditions: recombinant enzyme, 0.75 h. It counts as ADME.
Data set [8] addresses T1, Cytochrome P450 3A5. As to the kind of experiment: Drug metabolism assessed as human recombinant CYP3A5-mediated 5-methylene-1-phenyl-pyridin-1-ium-2-one formation at 50 uM incubated for 45 mins in presence of NADPH and glutathione by LC-MS/MS analysis. Conditions: recombinant enzyme, 0.75 h. It counts as ADME.
Data set [9] in a line: Drug metabolism in rat bile assessed as formation of (2R)-2-acetamido-3-[(6-oxo-1-phenyl-3-pyridyl)methylsulfanyl]propanoic acid at 100 mg/kg, ip measured after 2 hrs by LC-MS/MS analysis. In kind it is ADME, organism-based. The conditions noted are these: in vivo.
The nature of data set [10]: Drug metabolism in rat liver assessed as formation of GSH-conjugate at 100 mg/kg, ip measured up to 3 hrs by LC-MS/MS analysis. It counts as ADME, organism-based. Conditions: in vivo.
Data set [11] is described as follows: Drug metabolism in rat liver assessed as formation of GSH-conjugate by measuring retention time of cysteine adduct in proteolytic protein samples at 10 to 400 mg/kg, ip measured up to 3 hrs by LC-MS/MS analysis. The conditions noted are these: in vivo. In kind it is ADME, organism-based.
Data set [12] can be described thus: Drug metabolism in rat liver assessed as formation of GSH-conjugate by measuring hepatic protein adduction formation at 50 to 200 mg/kg, ip measured after 1 hr by LC-MS/MS analysis. In kind it is ADME, organism-based. The conditions noted are these: in vivo.
For another data set, the target named is T3, Cytochrome P450 2A6 (Homo sapiens, UniProt P11509).
T3 sequence (P11509 whole entry): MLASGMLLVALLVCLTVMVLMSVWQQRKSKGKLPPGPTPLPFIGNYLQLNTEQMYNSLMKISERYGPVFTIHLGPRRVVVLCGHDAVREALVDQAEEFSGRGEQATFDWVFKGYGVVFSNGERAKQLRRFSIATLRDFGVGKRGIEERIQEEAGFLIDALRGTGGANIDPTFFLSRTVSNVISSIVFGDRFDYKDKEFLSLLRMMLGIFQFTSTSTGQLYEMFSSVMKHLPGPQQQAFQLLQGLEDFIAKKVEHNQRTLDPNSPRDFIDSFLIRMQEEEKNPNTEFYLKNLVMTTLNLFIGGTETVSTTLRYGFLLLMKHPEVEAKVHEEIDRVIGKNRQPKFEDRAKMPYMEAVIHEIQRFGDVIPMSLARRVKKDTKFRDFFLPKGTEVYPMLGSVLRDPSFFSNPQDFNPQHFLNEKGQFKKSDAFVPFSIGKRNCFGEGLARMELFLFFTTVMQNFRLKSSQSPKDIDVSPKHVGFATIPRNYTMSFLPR
Put plainly: Drug metabolism assessed as human recombinant CYP2A6-mediated compound activation using 50 uM pirfenidone incubated for 45 mins in presence of NADPH and glutathione by LC-MS/MS analysis. In kind it is ADME. The conditions noted are these: recombinant enzyme, 0.75 h.

Data set [13] is described as follows: Toxicity in rat assessed as induction of liver injury at 150 to 200 mg/kg, ip. It counts as organism-based. The conditions noted are these: in vivo.
The next data set has as its system Hepatocyte. Put plainly: Toxicity in rat primary hepatocytes at 800 uM. In kind it is cell-based.

T1 sequence (P20815 whole entry): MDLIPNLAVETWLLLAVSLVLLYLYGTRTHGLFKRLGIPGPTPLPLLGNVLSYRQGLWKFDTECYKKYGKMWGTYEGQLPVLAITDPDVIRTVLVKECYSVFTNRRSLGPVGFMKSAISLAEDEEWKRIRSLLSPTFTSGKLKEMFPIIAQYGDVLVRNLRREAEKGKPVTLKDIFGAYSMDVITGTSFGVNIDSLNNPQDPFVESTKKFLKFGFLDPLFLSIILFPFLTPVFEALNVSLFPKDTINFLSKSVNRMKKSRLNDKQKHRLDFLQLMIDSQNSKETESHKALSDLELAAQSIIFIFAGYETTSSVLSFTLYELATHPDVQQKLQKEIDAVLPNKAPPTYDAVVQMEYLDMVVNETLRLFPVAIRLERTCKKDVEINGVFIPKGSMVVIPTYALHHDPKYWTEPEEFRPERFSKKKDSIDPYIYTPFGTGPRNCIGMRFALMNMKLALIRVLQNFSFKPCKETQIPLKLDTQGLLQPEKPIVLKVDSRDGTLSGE

Turning to `O=c1ccc(CO)cn1-c1ccccc1`, the Retention_time in data set [1] was found to be 7.25 min.
Take `CC(=O)N[C@@H](CSCc1ccc(=O)n(-c2ccccc2)c1)C(=O)O`: the Retention_time in [2] turned out to be 7.26 min.
With `C=C1C=CC(=O)[N+](c2ccccc2)=C1`, the Drug uptake result at Cytochrome P450 3A5 [3] and at Cytochrome P450 3A4 [4] was “Metabolite_Detected” each time.
With `Cc1ccc(=O)n(-c2ccccc2)c1` [PIRFENIDONE], the Drug metabolism result in [5] was “Metabolite_Detected”; at Cytochrome P450 3A4 [7], “Metabolite_Detected”; on Cytochrome P450 3A5 [8] it was “Metabolite_Detected”; in data set [9] it was “Metabolite_Detected”; in [10], “Dose-dependent effect”; in data set [12], “Dose-dependent effect”. Further, at Cytochrome P450 2A6, the Drug metabolism entry was “Metabolite_Detected”. Also, the Retention_time is 6.6 min in [6] and 6.24 min in data set [11]. Besides, the Activity result (in data set [13]; in the data set with Hepatocyte) was “Non-Toxic” each time.
